According to ChEMBL document CHEMBL1201862, “PubChem BioAssay data set” (2004):
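How tested: cells in 96-well plates exposed to compound for 48 hours at five concentrations. GI50 is the concentration that inhibits growth by half.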 The source made the active and inactive calls. Rule as the data show it: active = GI50 up to about 1.1 µM and inactive = higher.

Experiments:
Assay in all cases: DTP human tumour cell line panel, 48 h
786-0 = system: 786-0
A498 = system: A498
COLO 205 = system: COLO 205
EKVX = system: EKVX
HT-29 = system: HT-29
IGROV-1 = system: IGROV-1
Malme-3M = system: Malme-3M
NCI-H522 = system: NCI-H522
OVCAR-3 = system: OVCAR-3
OVCAR-4 = system: OVCAR-4
OVCAR-5 = system: OVCAR-5
RPMI-8226 = system: RPMI-8226
SF-295 = system: SF-295
SK-MEL-5 = system: SK-MEL-5
SNB-75 = system: SNB-75
SR = system: SR
SW-620 = system: SW-620
T47D = system: T47D
UACC-257 = system: UACC-257
MDA-N = system: MDA-N

Measured: GI50

Oc1ccc(/N=C/c2ccc(/C=N/c3ccc(O)cc3)cc2)cc1
inactive: 786-0 15.3 µM | A498 24.3 µM | COLO 205 18.5 µM | EKVX 32.1 µM | HT-29 19.8 µM | IGROV-1 20 µM | Malme-3M 18 µM | NCI-H522 17.7 µM | OVCAR-3 16.3 µM | OVCAR-4 14.5 µM | OVCAR-5 19.3 µM | RPMI-8226 10.1 µM | SF-295 16.8 µM | SK-MEL-5 15 µM | SNB-75 16.7 µM | SR 6.44 µM | SW-620 17.5 µM | T47D 25.7 µM | UACC-257 16.8 µM

O=c1[nH]/c(=C/c2ccc3c(c2)OCO3)c(=O)[nH]/c1=C/c1ccc2c(c1)OCO2
inactive: 786-0 > 10 µM | A498 > 10 µM | COLO 205 > 10 µM | EKVX > 10 µM | HT-29 > 10 µM | IGROV-1 > 10 µM | MDA-N > 10 µM | Malme-3M > 10 µM | NCI-H522 > 10 µM | OVCAR-3 > 10 µM | OVCAR-4 > 10 µM | OVCAR-5 > 10 µM | RPMI-8226 > 10 µM | SF-295 > 10 µM | SK-MEL-5 > 10 µM | SNB-75 > 10 µM | SW-620 > 10 µM | T47D > 10 µM | UACC-257 > 10 µM

CC1(c2ccc(Cl)s2)CC(c2ccc(Cl)s2)=C(C#N)C(=C(C#N)C#N)N1 (centres undefined)
inactive: 786-0 19.8 µM | A498 19.4 µM | COLO 205 19.9 µM | EKVX 18.2 µM | HT-29 19.2 µM | IGROV-1 19.9 µM | MDA-N 22.4 µM | Malme-3M 22.8 µM | OVCAR-3 15 µM | OVCAR-4 16.5 µM | OVCAR-5 19.4 µM | RPMI-8226 32 µM | SF-295 15 µM | SK-MEL-5 15.2 µM | SNB-75 22.2 µM | SW-620 13.9 µM | T47D 18.8 µM | UACC-257 21.9 µM

O=C1CC(c2cccc(Br)c2)n2cccc21 (centres undefined)
inactive: 786-0 > 100 µM | A498 > 100 µM | COLO 205 > 100 µM | EKVX > 100 µM | HT-29 93.1 µM | IGROV-1 57.3 µM | NCI-H522 47.2 µM | OVCAR-3 > 100 µM | OVCAR-4 88.9 µM | OVCAR-5 > 100 µM | RPMI-8226 > 100 µM | SF-295 > 100 µM | SNB-75 35.3 µM | SR 51.2 µM | SW-620 > 100 µM | T47D 63.4 µM | UACC-257 > 100 µM

Cc1nc(=O)[nH]c2c1C(=O)N(C(C)C)C(NC(C)C)S2 (centres undefined)
inactive: 786-0 > 100 µM | A498 > 100 µM | COLO 205 > 100 µM | EKVX > 100 µM | HT-29 > 100 µM | IGROV-1 > 100 µM | MDA-N > 100 µM | Malme-3M 57.7 µM | NCI-H522 47.2 µM | OVCAR-3 26.9 µM | OVCAR-4 57.9 µM | OVCAR-5 > 100 µM | RPMI-8226 > 100 µM | SF-295 > 100 µM | SK-MEL-5 > 100 µM | SNB-75 > 100 µM | SW-620 > 100 µM | T47D 90.2 µM | UACC-257 > 100 µM

COC(=O)c1c(-c2ccc(Cl)cc2)cc2c3ccccc3n(C)c2c1C(=O)OC
inactive: 786-0 > 100 µM | A498 > 100 µM | COLO 205 > 100 µM | EKVX > 100 µM | HT-29 91.6 µM | IGROV-1 > 100 µM | MDA-N > 100 µM | Malme-3M > 100 µM | NCI-H522 67.5 µM | OVCAR-3 > 100 µM | OVCAR-4 > 100 µM | OVCAR-5 > 100 µM | SF-295 > 100 µM | SK-MEL-5 > 100 µM | SW-620 > 100 µM | UACC-257 64.7 µM

Cc1ccc(-n2cc([Si](C)(C)C)nn2)s1
inactive: 786-0 > 100 µM | A498 > 100 µM | COLO 205 61.8 µM | HT-29 34.8 µM | MDA-N > 100 µM | Malme-3M > 100 µM | NCI-H522 > 100 µM | OVCAR-3 > 100 µM | OVCAR-4 > 100 µM | OVCAR-5 > 100 µM | RPMI-8226 22.9 µM | SF-295 > 100 µM | SK-MEL-5 45.4 µM | SW-620 > 100 µM | T47D > 100 µM | UACC-257 > 100 µM
